Data on two compounds can be found in paper PMC6002064, “Validated UPLC-MS/MS method for the quantification of dasatinib in plasma: Application to pharmacokinetic interaction studies with nutraceuticals in Wistar rats” (PLoS ONE, 2018).

Series [1] in a line: Stability of DAS in rat plasma QC samples. In kind it is in vitro ADME. Conditions: DAS solutions, 4°C, n = 6, read-out: Mean recovery (%) ±RSD, refrigerator stability.
Series [2] can be described thus: Stability of DAS in rat plasma QC samples. It counts as in vitro ADME. The method, then: QC samples spiked at two concentration levels of DAS, low (3 ng/mL) and high (450 ng/mL), were analyzed (n = 6) in order to assess the drug stability in plasma. Stability testing were performed by exposing the QC plasma samples to different conditions, namely auto-sampler stability (extracted samples left in the auto-sampler at 10°C for 56 h before injection), short-term (bench-top) stability (samples left at room temperature (25 °C) for 6 h), and long-term stability (samples left at -30°C for 30 days). Moreover, freeze-thaw stability was assessed as follows, plasma samples were frozen at around -30°C and then thawed at room temperature for three cycles. For each sample, DAS concentrations were related to the nominal concentrations to calculate the % recovery.

A short description of series [3]: Pharmacokinetic interaction study of oral DAS with nutraceuticals in acetic acid-induced UC Wistar rats (UPLC-MS/MS of plasma). It counts as in vivo. The settings on record: DAS 25 mg/kg oral. The method, then: Calibration standards, QC samples, as well as blank plasma samples were centrifugated at 6000 rpm for 5 min. Following the separation of the methanolic supernatants, the residues of individual samples were separately washed with 0.5 mL volumes of methanol. The combined supernatant and washing of each sample were cleaned-up by passing onto STRATA® C 18-E (200 mg, 3 mL) SPE cartridges, previously preconditioned with 3.0 mL methanol followed by 3.0 mL ultrapure water. The retained drugs were eluted from each sample using separate volumes of 0.5 mL methanol. Following the evaporation of the eluted methanolic solutions to dryness under nitrogen, the residue was reconstituted in 0.5 mL acetonitrile. Finally, UPLC–MS/MS analysis of the reconstituted samples was performed by injecting 5 μL volumes of each sample under the operating conditions.
Wistar healthy male rats weighing 250 ± 30 g were provided by the animal house, Women Student-Medical studies & Sciences Sections, College of Pharmacy, King Saud University, Riyadh, Saudi Arabia. The rats were placed in cages kept in a well-ventilated room and subjected to a regular 12 h day–night cycle at a relative humidity of 40–60% and average temperature of 24–27°C. All the rats could access the water freely while diet was prohibited for 12 h before drug administration. The rats were acclimatized for 7 days to laboratory conditions before conducting the experiment. Seven groups of five rats each were involved in the study. For all rats, UC was induced by oral daily administration of 1 mL volumes of 5% glacial acetic acid in water for three successive days. DAS suspension was prepared by triturating 125 mg of DAS with 5 mL aqueous methyl cellulose (0.5%, w/v) to prepare DAS suspension of 25 mg/mL, given to all groups with the exception of group V where olive oil was used for the suspension preparation. Curcumin preparations (50 mg/mL) were prepared by suspending the content of one capsule of either Curcumin 95 500 mg or Super Bio-Curcumin 400 mg in 10 mL or 8 mL volumes of water, respectively. By analogy, a suspension of 50 mg/mL olive leaf extract was prepared by suspending the content of one capsule into 10 mL water. However, for cocoa preparations, 450 mg cocoa extract/ 5 mL, aqueous suspensions of either CocoaVia® capsules or CocoaVia® unsweetened dark chocolate powder were prepared by suspending the content of one capsule or 2 g powder, respectively in water. Separate volumes (0.25 mL) of DAS suspension were orally administered to all treated animals using a gavage needle so that all rats received DAS dose of 25 mg/kg. For the purpose of comparison, rats of group I were only treated with DAS. Rats of groups II and III, curcumin groups, were first separately given an oral dose of […] of either Super Bio-Curcumin, curcumin I (rat group II) or Curcumin 95, curcumin II (rat group III). Then 30 min following curcumin administration, DAS suspension was given to the rats in a dose of 25 mg/kg. Rats of groups IV and V, the olive oil groups, were administered olive oil as follows; rats of group IV were separately given an oral dose of olive leaf extract, olive oil I, 50 mg/kg 30 min prior to DAS administration (25 mg/kg), while rats of groups V were separately given an oral dose of DAS suspended in olive oil, olive oil II (25 mg/kg). Finally, rats of groups VI and VII, cocoa groups, were initially given an oral dose of CocoaVia® capsules, cocoa I, 90 mg/kg (rat group VI), or CocoaVia® unsweetened dark chocolate, cocoa II, 90 mg/kg (rat group VII) 30 min before DAS dosing of 25 mg/kg. For each group, volumes of 0.3 mL blood samples were withdrawn from the retro-orbital sinus of each rat into heparinized tubes. Blood samples were collected at different time intervals; 0 (prior to dosing), 0.5, 1, 2, 3, 5, 6, and 24 h following DAS administration. All collected blood samples were centrifuged immediately at 4,500 rpm (30 min, 4°C).

Series [4] is described as follows: Stability of DAS solutions. It counts as physicochemical.
Details of series [5]: method as in PMID 28640225. Conditions: rats; cited from earlier work.
The mark [6] stands for this setting: male, Wistar, rat, DAS in plasma, n = 5, mean±SD.

The structures appear in SMILES notation.

A word on the AUC(0-inf): it is total exposure, with the tail of the curve extrapolated. The low end stands for low exposure, the high end for high exposure. As usually defined, the AUC(0-t) is the area under the concentration-time curve up to a stated or last time point. By Tmax is commonly meant the time from dosing to the highest level. As usually defined, the Cmax is the highest concentration seen after dosing. For the compound `Cc1nc(Nc2ncc(C(=O)Nc3c(C)cccc3Cl)s2)cc(N2CCN(CCO)CC2)n1` [DAS, Dasatinib], in series [1] (3 ng/mL), the recovery at 3 months, 3 ng/mL worked out at 99.9%. The recovery at 3 months, 450 ng/mL in series [1] (450 ng/mL) stood at 98.1%. For the same compound, in series [2] (extracted rat plasma QC samples, 10°C, 56 h, extracted samples, 3 ng/mL in rat plasma, n = 6, read-out: Mean recovery (%) ±RSD, auto-sampler stability), the recovery at 56 h, 3 ng/mL worked out at 97.3%. Also, the recovery at 56 h, 450 ng/mL in series [2] (extracted rat plasma QC samples, 10°C, 56 h, extracted samples, 450 ng/mL in rat plasma, n = 6, read-out: Mean recovery (%) ±RSD, auto-sampler stability) is 98.5%. Also, the recovery at 6 h, 3 ng/mL in series [2] (rat plasma QC samples, 25°C, 6 h, 3 ng/mL in rat plasma, n = 6, read-out: Mean recovery (%) ±RSD, short-term stability) was found to be 96.1%. Moreover, in series [2] (rat plasma QC samples, 25°C, 6 h, 450 ng/mL in rat plasma, n = 6, read-out: Mean recovery (%) ±RSD, short-term stability), the recovery at 6 h, 450 ng/mL is 97.2%. Also, the recovery at 3 freeze-thaw cycles, 3 ng/mL in series [2] (rat plasma QC samples, -30°C, 3 cycles, 3 ng/mL in rat plasma, n = 6, read-out: Mean recovery (%) ±RSD, freeze-thaw stability) was found to be 101%. The recovery at 3 freeze-thaw cycles, 450 ng/mL in series [2] (rat plasma QC samples, -30°C, 3 cycles, 450 ng/mL in rat plasma, n = 6, read-out: Mean recovery (%) ±RSD, freeze-thaw stability) amounted to 99.5%. Also, the recovery at 30 days, 3 ng/mL in series [2] (rat plasma QC samples, -30°C, 30 days, 3 ng/mL in rat plasma, n = 6, read-out: Mean recovery (%) ±RSD, long-term stability) is 97.9%. Further, the recovery at 30 days, 450 ng/mL in series [2] (rat plasma QC samples, -30°C, 30 days, 450 ng/mL in rat plasma, n = 6, read-out: Mean recovery (%) ±RSD, long-term stability) worked out at 97.3%. Also, in series [2] (rat, rat plasma QC samples, all handling and storage conditions of Table 6, 3 and 450 ng/mL in plasma, read-out: recovery values in stability studies), the recovery was at least 96.1%. In series [3] (DAS, n = 5, mean±SD), the CL came out at 153 ± 66.8 mL/min/kg and the Vd was 238.12 ± 44.22 L/kg. Moreover, in series [3] (setting [6]), the AUC(0-inf) is 2660 ± 596 ng·h/mL, the exposure AUC(0-t) was found to be 1640 ± 681 ng·h/mL and the Tmax turned out to be 0.51 ± 0.08 h. Also, in series [3] (male, Wistar, rat, DAS in plasma, n = 5, mean±SD, nutraceutical given orally 30 min before DAS (olive oil II: DAS suspended in it)), the highest level (Cmax) was 230 ± 31 ng/mL. Also, in series [3] (male, Wistar, rat, DAS in plasma, n = 5, mean±SD, read-out: MRT0-t), the MRT last is 8.6 ± 0.88 h. Besides, the MRT inf in series [3] (male, Wistar, rat, DAS in plasma, n = 5, mean±SD, read-out: MRT0-∞) worked out at 24.4 ± 4.29 h. Also, the half-life in series [3] (male, Wistar, rat, DAS in plasma, n = 5, mean±SD, read-out: t½ (converted)) was 17.9 ± 2.15 h. In addition, in series [3] (male, Wistar, rat, plasma, time 0 h (prior to dosing), read-out: Conc*10 (ng/mL plasma), average DAS plasma concentration), the concentration at 0 h came out at 28.6 ng/mL. Moreover, in series [3] (male, Wistar, rat, plasma, time 0.5 h, read-out: Conc*10 (ng/mL plasma), average DAS plasma concentration), the concentration at 0.5 h was 236 ng/mL. Moreover, the concentration at 1 h in series [3] (male, Wistar, rat, plasma, time 1 h, read-out: Conc*10 (ng/mL plasma), average DAS plasma concentration) was found to be 153 ng/mL. The concentration at 2 h in series [3] (male, Wistar, rat, plasma, time 2 h, read-out: Conc*10 (ng/mL plasma), average DAS plasma concentration) was 117 ng/mL. In series [3] (male, Wistar, rat, plasma, time 3 h, read-out: Conc*10 (ng/mL plasma), average DAS plasma concentration), the concentration at 3 h came to 99.7 ng/mL. Moreover, in series [3] (male, Wistar, rat, plasma, time 5 h, read-out: Conc*10 (ng/mL plasma), average DAS plasma concentration), the concentration at 5 h is 79.1 ng/mL. The concentration at 6 h in series [3] (male, Wistar, rat, plasma, time 6 h, read-out: Conc*10 (ng/mL plasma), average DAS plasma concentration) turned out to be 69.6 ng/mL. The concentration at 24 h in series [3] (male, Wistar, rat, plasma, time 24 h, read-out: Conc*10 (ng/mL plasma), average DAS plasma concentration) came out at 39.8 ng/mL. Moreover, the “stability of DAS solutions” value in series [4] (room temperature for 6 h) was “stable”. Moreover, the “stability of DAS solutions” value in series [4] (up to 3 months at the refrigerator (4°C)) is reported as “stable”.

Consider `CC(=O)N1CCN(c2ccc(OCC3COC(Cn4ccnc4)(c4ccc(Cl)cc4Cl)O3)cc2)CC1` (stereo not shown) [ketoconazole], for which, in series [5], the “effect of co-administration on the PK of sorafenib” value is given as “did not cause a significant effect”.
